Measured values from article PMC11345841, “Exploring 2-Sulfonylpyrimidine Warheads as Acrylamide Surrogates for Targeted Covalent Inhibition: A BTK Story” (Journal of Medicinal Chemistry, 2024).
Where two headings read alike, the source gives them in different places.

How the values were obtained:
DDR1 = biological target: T1, DDR1 (Homo sapiens, UniProt Q08345); assay: KINOMEscan ScanTK; type: binding
T1 construct: purchased Eurofins DiscoverX KINOMEscan (scanTK)

FGFR3 = biological target: T2, FGFR3 (Homo sapiens, UniProt P22607); assay: KINOMEscan ScanTK; type: binding
T2 construct: purchased Eurofins DiscoverX KINOMEscan (scanTK)

FLT3(D835H) = biological target: T3, FLT3(D835H) (Homo sapiens, UniProt P36888, D835H); assay: KINOMEscan ScanTK; type: binding
T3 construct: purchased Eurofins DiscoverX KINOMEscan (scanTK)
T3 sequence (P36888 27-993 D835H): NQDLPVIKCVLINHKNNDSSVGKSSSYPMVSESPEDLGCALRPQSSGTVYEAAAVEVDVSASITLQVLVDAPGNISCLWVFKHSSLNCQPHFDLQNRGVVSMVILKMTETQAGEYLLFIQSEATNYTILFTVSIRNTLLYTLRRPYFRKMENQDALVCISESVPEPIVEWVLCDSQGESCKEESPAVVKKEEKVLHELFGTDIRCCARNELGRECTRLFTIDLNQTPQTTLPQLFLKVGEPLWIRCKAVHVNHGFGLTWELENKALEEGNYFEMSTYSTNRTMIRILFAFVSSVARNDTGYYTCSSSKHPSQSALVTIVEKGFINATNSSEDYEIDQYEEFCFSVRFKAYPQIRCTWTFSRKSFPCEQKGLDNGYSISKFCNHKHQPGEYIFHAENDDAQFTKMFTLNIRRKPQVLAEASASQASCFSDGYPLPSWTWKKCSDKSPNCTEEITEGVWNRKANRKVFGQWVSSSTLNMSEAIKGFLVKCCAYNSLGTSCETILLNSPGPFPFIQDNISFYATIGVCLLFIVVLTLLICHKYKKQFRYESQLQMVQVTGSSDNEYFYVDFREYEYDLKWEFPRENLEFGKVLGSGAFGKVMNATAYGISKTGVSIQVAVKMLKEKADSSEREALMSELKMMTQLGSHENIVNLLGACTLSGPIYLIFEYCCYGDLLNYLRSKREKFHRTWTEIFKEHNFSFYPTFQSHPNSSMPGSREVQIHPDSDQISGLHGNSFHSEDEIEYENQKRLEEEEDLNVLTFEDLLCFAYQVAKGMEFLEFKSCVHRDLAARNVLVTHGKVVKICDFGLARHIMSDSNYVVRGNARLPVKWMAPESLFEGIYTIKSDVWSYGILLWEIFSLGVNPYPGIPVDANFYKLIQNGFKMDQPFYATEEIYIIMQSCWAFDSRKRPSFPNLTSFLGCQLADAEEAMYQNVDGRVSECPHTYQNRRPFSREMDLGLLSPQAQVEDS

ITK = biological target: T4, ITK (Homo sapiens, UniProt Q08881); assay: KINOMEscan ScanTK; type: binding; conditions: for remaining binding at 1 µM / difference in %Control versus compound Ib at 1 µM: ITK; for inhibition at 1 µM: ScanTK
T4 construct: purchased Eurofins DiscoverX KINOMEscan (scanTK)
T4 sequence (Q08881 1-620): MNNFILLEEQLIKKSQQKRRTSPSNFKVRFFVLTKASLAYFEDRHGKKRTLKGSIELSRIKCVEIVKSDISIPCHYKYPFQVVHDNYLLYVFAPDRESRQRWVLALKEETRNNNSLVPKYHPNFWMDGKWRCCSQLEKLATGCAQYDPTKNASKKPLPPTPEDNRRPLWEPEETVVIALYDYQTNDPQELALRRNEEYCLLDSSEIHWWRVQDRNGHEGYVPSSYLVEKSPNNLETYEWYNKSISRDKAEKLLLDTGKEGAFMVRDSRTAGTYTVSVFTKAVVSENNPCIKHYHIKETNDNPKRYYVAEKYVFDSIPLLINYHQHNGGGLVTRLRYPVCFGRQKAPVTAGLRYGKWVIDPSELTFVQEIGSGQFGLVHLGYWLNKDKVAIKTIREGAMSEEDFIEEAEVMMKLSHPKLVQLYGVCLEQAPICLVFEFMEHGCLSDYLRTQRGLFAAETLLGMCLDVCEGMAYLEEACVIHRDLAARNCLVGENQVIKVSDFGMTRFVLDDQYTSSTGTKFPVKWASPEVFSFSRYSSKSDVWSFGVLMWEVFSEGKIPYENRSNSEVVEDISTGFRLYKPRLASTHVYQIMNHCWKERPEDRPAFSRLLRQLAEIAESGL

KIT(D816H) = biological target: T5, KIT(D816H) (Homo sapiens, UniProt P10721, D816H); assay: KINOMEscan ScanTK; type: binding
T5 construct: purchased Eurofins DiscoverX KINOMEscan (scanTK)

KIT(D816V) = biological target: T6, KIT(D816V) (Homo sapiens, UniProt P10721, D816V); assay: KINOMEscan ScanTK; type: binding
T6 construct: purchased Eurofins DiscoverX KINOMEscan (scanTK)

TMD8 cells = assay: RNA-seq gene expression; conditions: TMD8, 1 μM, 8 h; for number of genes reduced vs DMSO: FDR < 0.01, log2FC < -0.5; for number of genes increased vs DMSO: FDR < 0.01, log2FC > 0.5
[1] = biological target: T7, TYK2(JH1domain-catalytic) (Homo sapiens, UniProt P29597); assay: KINOMEscan ScanTK; type: binding
T7 construct: TYK2(JH1domain-catalytic); purchased Eurofins DiscoverX KINOMEscan (scanTK)
T7 sequence (P29597 888-1187 limits assumed): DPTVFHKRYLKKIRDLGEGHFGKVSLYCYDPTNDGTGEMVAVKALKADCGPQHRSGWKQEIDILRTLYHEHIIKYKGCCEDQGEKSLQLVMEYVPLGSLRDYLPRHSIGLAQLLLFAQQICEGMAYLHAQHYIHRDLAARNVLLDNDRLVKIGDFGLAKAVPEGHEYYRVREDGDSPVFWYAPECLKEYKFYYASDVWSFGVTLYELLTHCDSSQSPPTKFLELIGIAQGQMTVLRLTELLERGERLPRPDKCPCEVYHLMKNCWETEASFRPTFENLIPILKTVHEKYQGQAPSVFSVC

T5 sequence (P10721 26-976 D816H): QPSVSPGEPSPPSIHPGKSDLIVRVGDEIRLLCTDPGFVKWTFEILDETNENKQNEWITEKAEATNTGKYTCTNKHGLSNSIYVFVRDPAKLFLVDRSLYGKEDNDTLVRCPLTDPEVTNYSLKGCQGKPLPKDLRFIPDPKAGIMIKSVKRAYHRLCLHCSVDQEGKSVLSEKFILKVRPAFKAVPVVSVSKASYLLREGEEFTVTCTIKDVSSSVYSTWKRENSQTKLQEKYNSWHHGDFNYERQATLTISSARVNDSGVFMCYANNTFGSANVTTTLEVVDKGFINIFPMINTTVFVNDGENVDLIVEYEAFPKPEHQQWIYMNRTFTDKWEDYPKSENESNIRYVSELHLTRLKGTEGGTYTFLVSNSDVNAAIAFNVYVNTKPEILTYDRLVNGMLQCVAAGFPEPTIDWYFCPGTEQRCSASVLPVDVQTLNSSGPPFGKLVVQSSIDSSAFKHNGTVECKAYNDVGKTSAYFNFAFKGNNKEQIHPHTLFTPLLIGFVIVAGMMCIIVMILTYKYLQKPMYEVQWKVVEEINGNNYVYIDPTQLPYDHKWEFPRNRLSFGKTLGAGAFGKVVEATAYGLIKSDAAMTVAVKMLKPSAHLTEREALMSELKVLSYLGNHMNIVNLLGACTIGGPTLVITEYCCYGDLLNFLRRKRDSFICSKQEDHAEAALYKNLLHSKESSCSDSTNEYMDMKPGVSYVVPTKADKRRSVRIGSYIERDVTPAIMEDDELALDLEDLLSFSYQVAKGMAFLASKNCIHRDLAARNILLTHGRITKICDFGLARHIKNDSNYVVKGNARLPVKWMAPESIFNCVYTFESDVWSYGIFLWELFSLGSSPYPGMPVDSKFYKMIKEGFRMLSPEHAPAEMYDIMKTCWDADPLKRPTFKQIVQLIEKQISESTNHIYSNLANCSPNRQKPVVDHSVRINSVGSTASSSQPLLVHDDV
T1 sequence (Q08345 19-913): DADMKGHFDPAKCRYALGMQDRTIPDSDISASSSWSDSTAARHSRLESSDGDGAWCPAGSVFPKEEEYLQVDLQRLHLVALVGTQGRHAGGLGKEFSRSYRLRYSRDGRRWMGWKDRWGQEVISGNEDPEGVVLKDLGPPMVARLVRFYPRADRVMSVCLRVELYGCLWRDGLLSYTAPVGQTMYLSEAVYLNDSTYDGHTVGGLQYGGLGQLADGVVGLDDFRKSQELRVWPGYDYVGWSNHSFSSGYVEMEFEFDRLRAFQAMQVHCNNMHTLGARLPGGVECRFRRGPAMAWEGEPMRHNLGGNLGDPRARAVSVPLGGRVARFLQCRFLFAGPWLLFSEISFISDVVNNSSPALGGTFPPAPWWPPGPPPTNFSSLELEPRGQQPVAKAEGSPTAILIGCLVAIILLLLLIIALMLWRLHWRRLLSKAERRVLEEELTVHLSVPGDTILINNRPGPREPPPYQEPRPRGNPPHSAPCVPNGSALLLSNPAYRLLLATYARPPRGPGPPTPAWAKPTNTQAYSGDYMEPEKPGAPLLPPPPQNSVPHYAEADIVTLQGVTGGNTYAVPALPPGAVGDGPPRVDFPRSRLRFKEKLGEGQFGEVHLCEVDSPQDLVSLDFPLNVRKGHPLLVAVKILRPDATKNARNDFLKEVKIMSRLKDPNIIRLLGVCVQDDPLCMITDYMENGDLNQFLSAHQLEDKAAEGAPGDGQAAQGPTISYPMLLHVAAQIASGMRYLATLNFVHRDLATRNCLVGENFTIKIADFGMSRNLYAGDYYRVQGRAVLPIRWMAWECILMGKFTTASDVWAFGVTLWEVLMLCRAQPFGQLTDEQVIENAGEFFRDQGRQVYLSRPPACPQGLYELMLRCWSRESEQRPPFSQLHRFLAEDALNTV
T6 sequence (P10721 26-976 D816V): as the sequence (P10721 26-976 D816H) above, with H791V counted along it
T2 sequence (P22607 23-806): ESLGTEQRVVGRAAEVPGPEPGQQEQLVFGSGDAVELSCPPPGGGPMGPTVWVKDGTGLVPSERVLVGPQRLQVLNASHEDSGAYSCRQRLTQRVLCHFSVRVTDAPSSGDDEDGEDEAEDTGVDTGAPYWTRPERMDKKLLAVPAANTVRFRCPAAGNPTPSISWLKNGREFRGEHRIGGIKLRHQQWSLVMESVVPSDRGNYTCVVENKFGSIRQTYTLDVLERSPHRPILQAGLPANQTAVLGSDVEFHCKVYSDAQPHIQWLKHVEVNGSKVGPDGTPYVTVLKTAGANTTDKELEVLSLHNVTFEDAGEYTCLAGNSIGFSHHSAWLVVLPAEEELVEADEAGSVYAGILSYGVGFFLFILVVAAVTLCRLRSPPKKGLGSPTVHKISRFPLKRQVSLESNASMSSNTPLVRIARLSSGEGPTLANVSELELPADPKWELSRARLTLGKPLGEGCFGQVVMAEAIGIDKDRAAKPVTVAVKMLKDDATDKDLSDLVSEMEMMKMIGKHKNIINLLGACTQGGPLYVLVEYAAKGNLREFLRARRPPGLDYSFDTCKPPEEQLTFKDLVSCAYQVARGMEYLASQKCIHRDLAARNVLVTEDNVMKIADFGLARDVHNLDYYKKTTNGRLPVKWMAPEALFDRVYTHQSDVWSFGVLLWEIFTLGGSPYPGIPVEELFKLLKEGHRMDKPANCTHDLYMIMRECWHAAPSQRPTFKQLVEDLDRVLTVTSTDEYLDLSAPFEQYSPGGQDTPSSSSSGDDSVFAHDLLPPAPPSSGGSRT

| remaining binding at 1 µM (DDR1; @1000nM, read-out: %Control) [%] | remaining binding at 1 µM (DDR1; read-out: %Control @1000nM) [%] | remaining binding at 1 µM (FGFR3; @1000nM, read-out: %Control) [%] | remaining binding at 1 µM (FGFR3; read-out: %Control @1000nM) [%] | remaining binding at 1 µM (FLT3(D835H); @1000nM, read-out: %Control) [%] | remaining binding at 1 µM (FLT3(D835H); read-out: %Control @1000nM) [%] | remaining binding at 1 µM (ITK; @1000nM, read-out: %Control) [%] | remaining binding at 1 µM (ITK; read-out: %Control @1000nM) [%] | inhibition at 1 µM (ITK) [%] | remaining binding at 1 µM (KIT(D816H); @1000nM, read-out: %Control) [%] | remaining binding at 1 µM (KIT(D816H); read-out: %Control @1000nM) [%] | remaining binding at 1 µM (KIT(D816V); @1000nM, read-out: %Control) [%] | remaining binding at 1 µM (KIT(D816V); read-out: %Control @1000nM) [%] | difference in %Control from compound Ib at 1 µM (DDR1; @1000nM) [%] | difference in %Control versus compound Ib at 1 µM (FGFR3; @1000nM) [%] | difference in %Control from compound Ib at 1 µM (FLT3(D835H); @1000nM) [%] | difference in %Control versus compound Ib at 1 µM (ITK; @1000nM) [%] | SMILES | number of genes unchanged vs DMSO (TMD8 cells) [genes] | number of genes reduced vs DMSO (TMD8 cells) [genes] | number of genes increased vs DMSO (TMD8 cells) [genes] | other results |
| --- | --- | --- | --- | --- | --- | --- | --- | --- | --- | --- | --- | --- | --- | --- | --- | --- | --- | --- | --- | --- | --- |
| 83 | 83 | 92 | 92 | 68 | 68 | 84 | 84 | 16 | 87 | 87 | 74 | 74 | 5 | 44 | 32 | 69 | Cc1cnc(S(C)(=O)=O)nc1N1CCCC(n2nc(-c3ccc(Oc4ccccc4)cc3)c3c(N)ncnc32)C1 (stereo not shown) [Compound 8a, 1-(1-(5-Methyl-2-(methylsulfonyl)pyrimidin-4-yl)piperidin-3-yl)-3-(4-phenoxyphenyl)-1H-pyrazolo[3,4-d]pyrimidin-4-amine] | 14761 | 189 | 97 | remaining binding at 1 µM ([1]; @1000nM, read-out: %Control): 89%; remaining binding at 1 µM ([1]; read-out: %Control @1000nM): 89% |
| 60 | 60 | 95 | 95 | 74 | 74 | 71 | 71 | 29 | 98 | 98 | 85 | 85 | -18 | 47 | 38 | 56 | COC(=O)c1cnc(S(C)(=O)=O)nc1N1CCCC(n2nc(-c3ccc(Oc4ccccc4)cc3)c3c(N)ncnc32)C1 (stereo not shown) [Compound 8b, Methyl 4-(3-(4-Amino-3-(4-phenoxyphenyl)-1H-pyrazolo[3,4-d]pyrimidin-1-yl)piperidin-1-yl)-2-(methylsulfonyl)pyrimidine-5-carboxylate] | 15031 | 15 | 1 | remaining binding at 1 µM ([1]; @1000nM, read-out: %Control): 95%; remaining binding at 1 µM ([1]; read-out: %Control @1000nM): 95% |
| 64 | 64 | 96 | 96 | 96 | 96 | 88 | 88 | 12 | 55 | 55 | 85 | 85 | -14 | 48 | 60 | 73 | CCOC(=O)c1cnc(S(C)(=O)=O)nc1N1CCC[C@@H](n2nc(-c3ccc(Oc4ccccc4)cc3)c3c(N)ncnc32)C1 [Compound 8c, Ethyl (R)-4-(3-(4-Amino-3-(4-phenoxyphenyl)-1H-pyrazolo[3,4-d]pyrimidin-1-yl)piperidin-1-yl)-2-(methylsulfonyl)pyrimidine-5-carboxylate] | 15047 | 0 | 0 | remaining binding at 1 µM ([1]; @1000nM, read-out: %Control): 100%; remaining binding at 1 µM ([1]; read-out: %Control @1000nM): 100% |

| SMILES | remaining binding at 1 µM (DDR1; @1000nM, read-out: %Control) [%] | remaining binding at 1 µM (DDR1; read-out: %Control @1000nM) [%] | remaining binding at 1 µM (FGFR3; @1000nM, read-out: %Control) [%] | remaining binding at 1 µM (FGFR3; read-out: %Control @1000nM) [%] | remaining binding at 1 µM (FLT3(D835H); @1000nM, read-out: %Control) [%] | remaining binding at 1 µM (FLT3(D835H); read-out: %Control @1000nM) [%] | remaining binding at 1 µM (ITK; @1000nM, read-out: %Control) [%] | remaining binding at 1 µM (ITK; read-out: %Control @1000nM) [%] | inhibition at 1 µM (ITK) [%] | remaining binding at 1 µM (KIT(D816H); @1000nM, read-out: %Control) [%] | remaining binding at 1 µM (KIT(D816H); read-out: %Control @1000nM) [%] | remaining binding at 1 µM (KIT(D816V); @1000nM, read-out: %Control) [%] | remaining binding at 1 µM (KIT(D816V); read-out: %Control @1000nM) [%] | difference in %Control from compound Ib at 1 µM (DDR1; @1000nM) [%] | difference in %Control versus compound Ib at 1 µM (FGFR3; @1000nM) [%] | difference in %Control from compound Ib at 1 µM (FLT3(D835H); @1000nM) [%] | difference in %Control versus compound Ib at 1 µM (ITK; @1000nM) [%] | number of genes unchanged vs DMSO (TMD8 cells) [genes] | number of genes reduced vs DMSO (TMD8 cells) [genes] | number of genes increased vs DMSO (TMD8 cells) [genes] | other results |
| --- | --- | --- | --- | --- | --- | --- | --- | --- | --- | --- | --- | --- | --- | --- | --- | --- | --- | --- | --- | --- | --- |
| C=CC(=O)N1CCC[C@@H](n2nc(-c3ccc(Oc4ccccc4)cc3)c3c(N)ncnc32)C1 [Compound 1g, Ibrutinib, reference compound] | 78 | 78 | 48 | 48 | 36 | 36 | 15 | 15 | 85 | 100 | 100 | 86 | 86 | – | – | – | – | 14846 | 125 | 76 | – |
